According to ChEMBL document CHEMBL1201862, “PubChem BioAssay data set” (2004):
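Each compound was tested at five concentrations against cells in 96-well plates for 48 hours. Here, GI50 denotes the concentration required for 50% inhibition of growth.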 The source made the active and inactive calls. Rule as the data show it: active = GI50 up to about 1.1 µM and inactive = higher.

What was measured:
Assay in all cases: NCI-60 cell line screen, 48 h
COLO 205 = tested on: COLO 205
HCC 2998 = tested on: HCC 2998
HOP-62 = tested on: HOP-62
HT-29 = tested on: HT-29
KM12 = tested on: KM12
LOX IMVI = tested on: LOX IMVI
OVCAR-3 = tested on: OVCAR-3
OVCAR-5 = tested on: OVCAR-5
OVCAR-8 = tested on: OVCAR-8
PC-3 = tested on: PC-3
RPMI-8226 = tested on: RPMI-8226
SF-539 = tested on: SF-539
SK-OV-3 = tested on: SK-OV-3
TK-10 = tested on: TK-10
U-251 = tested on: U-251
UO-31 = tested on: UO-31
HL-60 = tested on: HL-60
RXF 393 = tested on: RXF 393
SNB-75 = tested on: SNB-75
NCI/ADR-RES = tested on: NCI/ADR-RES

| Compound | GI50 (COLO 205) | GI50 (HCC 2998) | GI50 (HOP-62) | GI50 (HT-29) | GI50 (KM12) | GI50 (LOX IMVI) | GI50 (OVCAR-3) | GI50 (OVCAR-5) | GI50 (OVCAR-8) | GI50 (PC-3) | GI50 (RPMI-8226) | GI50 (SF-539) | GI50 (SK-OV-3) | GI50 (TK-10) | GI50 (U-251) | GI50 (UO-31) | GI50 (HL-60) | GI50 (RXF 393) | GI50 (SNB-75) | GI50 (NCI/ADR-RES) |
| --- | --- | --- | --- | --- | --- | --- | --- | --- | --- | --- | --- | --- | --- | --- | --- | --- | --- | --- | --- | --- |
| c1ccc(C(NC2CCCCC2NCCNC2CCCCC2NC(c2ccccc2)(c2ccccc2)c2ccccc2)(c2ccccc2)c2ccccc2)cc1 (configuration not stated) | > 100 µM (inactive) | > 10 µM (inactive) | 34.1 µM (inactive) | > 100 µM (inactive) | 57.1 µM (inactive) | 19 µM (inactive) | 39.5 µM (inactive) | > 100 µM (inactive) | 29.9 µM (inactive) | 64 µM (inactive) | 7.8 µM (inactive) | 44 µM (inactive) | 17.8 µM (inactive) | 90.4 µM (inactive) | 13.9 µM (inactive) | 20.4 µM (inactive) | – | – | – | – |
| CC1(C)OC[C@@H]([C@@]2(COC(c3ccccc3)(c3ccccc3)c3ccccc3)CC=CC(=O)O2)O1 | 20.1 µM (inactive) | 19 µM (inactive) | 38.5 µM (inactive) | 35 µM (inactive) | 27.9 µM (inactive) | 32.4 µM (inactive) | 35.2 µM (inactive) | 42.9 µM (inactive) | 33.6 µM (inactive) | 41.3 µM (inactive) | 23.4 µM (inactive) | 37.2 µM (inactive) | 38.8 µM (inactive) | 46.5 µM (inactive) | 48.9 µM (inactive) | 32.4 µM (inactive) | 33.7 µM (inactive) | 24.2 µM (inactive) | 14.2 µM (inactive) | – |
| CCCCCC/C=C\CCCCCCCCCc1c(O)c(OC)cc(O)c1CN(C)C | 1.92 µM (inactive) | – | 12.8 µM (inactive) | 4.44 µM (inactive) | 3.34 µM (inactive) | 3.2 µM (inactive) | 6.35 µM (inactive) | 14.5 µM (inactive) | 4.06 µM (inactive) | 2.96 µM (inactive) | 2.44 µM (inactive) | 5.3 µM (inactive) | 14.9 µM (inactive) | 14.6 µM (inactive) | 3.73 µM (inactive) | 4.21 µM (inactive) | 1.6 µM (inactive) | – | 2.79 µM (inactive) | 5.89 µM (inactive) |
| CCCCC1(C2c3ccccc3Oc3ccccc32)C(=O)N(c2ccccc2)N(c2ccccc2)C1=O | > 100 µM (inactive) | > 41.1 µM (inactive) | > 100 µM (inactive) | 77.1 µM (inactive) | 63.5 µM (inactive) | 41 µM (inactive) | 42.3 µM (inactive) | > 100 µM (inactive) | > 100 µM (inactive) | – | 27.7 µM (inactive) | > 100 µM (inactive) | > 100 µM (inactive) | – | 31.3 µM (inactive) | > 83.2 µM (inactive) | 21.9 µM (inactive) | 19.9 µM (inactive) | 86.7 µM (inactive) | 62.2 µM (inactive) |
| CC(C)(C)OC(=O)NC(Cc1ccccc1)C(=S)N1CCCC1 (configuration not stated) | > 100 µM (inactive) | > 100 µM (inactive) | 25.8 µM (inactive) | 85.7 µM (inactive) | > 100 µM (inactive) | > 87.9 µM (inactive) | > 100 µM (inactive) | > 100 µM (inactive) | > 100 µM (inactive) | – | 31.1 µM (inactive) | > 100 µM (inactive) | > 100 µM (inactive) | > 100 µM (inactive) | > 100 µM (inactive) | 40.4 µM (inactive) | 89.5 µM (inactive) | 58.9 µM (inactive) | 55.5 µM (inactive) | – |
| C=C1CCC([N+](=O)[O-])[C@](C)(N=O)CC[C@@H]2C1CC2(C)C (some centres not stated) | 28.1 µM (inactive) | – | 38.3 µM (inactive) | 19.9 µM (inactive) | 24.5 µM (inactive) | 16.1 µM (inactive) | 23.6 µM (inactive) | 16.1 µM (inactive) | 22.3 µM (inactive) | 26.4 µM (inactive) | 26 µM (inactive) | – | 57.7 µM (inactive) | 28.6 µM (inactive) | 21.4 µM (inactive) | 16.3 µM (inactive) | 5.43 µM (inactive) | – | 18.9 µM (inactive) | 22.8 µM (inactive) |
| NCCCNCCSP(=O)(O)O [AMIFOSTINE] | 385 µM (inactive) | > 733 µM (inactive) | > 321 µM (inactive) | > 750 µM (inactive) | 543 µM (inactive) | 270 µM (inactive) | > 750 µM (inactive) | > 750 µM (inactive) | > 511 µM (inactive) | – | > 452 µM (inactive) | > 750 µM (inactive) | > 750 µM (inactive) | – | > 750 µM (inactive) | 535 µM (inactive) | 176 µM (inactive) | > 736 µM (inactive) | > 750 µM (inactive) | > 750 µM (inactive) |
| Cn1c(/C=C/CO)c(CO)c2c1C(=O)C=C(N1CC1)C2=O [APAZIQUONE] | < 0.0122 µM (active) | < 0.01 µM (active) | < 0.01 µM (active) | < 0.01 µM (active) | < 0.01 µM (active) | < 0.01 µM (active) | 0.0206 µM (active) | < 0.0122 µM (active) | < 0.0156 µM (active) | – | 0.0172 µM (active) | < 0.01 µM (active) | < 0.0134 µM (active) | – | < 0.01 µM (active) | 0.0142 µM (active) | 0.0259 µM (active) | < 0.01 µM (active) | < 0.01 µM (active) | < 0.01 µM (active) |
